# Data reported in US7943618B2, “Btk protein kinase inhibitors” (Roche Palo Alto LLC, priority 2007, dated 2011).
# How the values were obtained:
# Ramos cells = experiment: Inhibition of B-cell Activation - B cell FLIPR assay in Ramos cells; assay type: cell-based; settings: Homo sapiens, 0.5 h, intracellular calcium increase stimulated by 10 μg/mL anti-IgM, compounds incubated 30 min at RT
# Text: Inhibition of B-cell Activation—B cell FLIPR assay in Ramos cells
# The B cell FLIPR assay is a cell based functional method of determining the effect of potential inhibitors of the intracellular calcium increase from stimulation by an anti-IgM antibody. Ramos cells (human Burkitt's lymphoma cell line. ATCC-No. CRL-1596) were cultivated in Growth Media (described below). One day prior to assay, Ramos cells were resuspended in fresh growth media (same as above) and set at a concentration of 0.5×10^6/mL in tissue culture flasks. On day of assay, cells are counted and set at a concentration of 1×10^6/mL1 in growth media supplemented with 1 μM FLUO-3AM(TefLabs Cat-No. 0116, prepared in anhydrous DMSO and 10% Pluronic acid) in a tissue culture flask, and incubated at 37° C. (4% CO2) for one h. To remove extracellular dye, cells were collected by centrifugation (5 min, 1000 rpm), resuspended in FLIPR buffer (described below) at 1×10^6 cells/mL and then dispensed into 96-well poly-D-lysine coated black/clear plates (BD Cat-No. 356692) at 1×10^5 cells per well. Test compounds were added at various concentrations ranging from 100 μM to 0.03 μM (7 concentrations, details below), and allowed to incubate with cells for 30 min at RT. Ramos cell Ca^2+ signaling was stimulated by the addition of 10 μg/mL anti-IgM (Southern Biotech, Cat-No. 2020-01) and measured on a FLIPR (Molecular Devices, captures images of 96 well plates using a CCD camera with an argon laser at 480nm excitation).
# Growth Medium: RPMI 1640 medium with L-glutamine (Invitrogen, Cat-No. 61870-010), 10% Fetal Bovine Serum (FBS, Summit Biotechnology Cat-No. FP-100-05); 1 mM Sodium Pyruvate (Invitrogen Cat. No. 11360-070).
# FLIPR buffer: HBSS (Invitrogen, Cat-No. 141175-079), 2 mM CaCl2 (Sigma Cat-No. C-4901), HEPES (Invitrogen, Cat-No. 15630-080), 2.5mM Probenecid (Sigma, Cat-No. P-8761), 0.1% BSA (Sigma, Cat-No. A-7906), 11 mM Glucose (Sigma, Cat-No. G-7528)
# Compound dilution details:
# In order to achieve the highest final assay concentration of 100 μM, 24 μL of 10 mM compound stock solution (made in DMSO) is added directly to 576 μL of FLIPR buffer. The test compounds are diluted in FLIPR Buffer (using Biomek 2000 robotic pipettor) resulting in the following dilution scheme: vehicle, 1.00×10^−4 M, 1.00×10^−5, 3.16×10^−6, 1.00×10^−6, 3.16×10^−7, 1.00×10^−7, 3.16×10^−8.
# Intracellular increases in calcium were reported using a max-min statistic (subtracting the resting baseline from the peak caused by addition of the stimulatory antibody using a Molecular Devices FLIPR control and statistic exporting software. The IC50 was determined using a non-linear curve fit (GraphPad Prism software). Representative results are in Table III.
# [1] = biological target: T1, Btk enzyme (His-tagged, full-length) (Homo sapiens, UniProt Q06187); experiment: Bruton's Tyrosine Kinase (Btk) Inhibition Assay (33P filtration capture); assay type: biochemical; settings: Bruton's tyrosine kinase Assay (Example 34), 100 μM ATP
# T1 construct: 5-10 nM Btk enzyme (His-tagged, full-length); His
# Text: Bruton's Tyrosine Kinase (Btk) Inhibition Assay
# The assay is a capture of radioactive ^33P phosphorylated product through filtration. The interactions of Btk, biotinylated SH2 peptide substrate (Src homology), and ATP lead to phosphorylation of the peptide substrate. Biotinylated product is bound streptavidin sepharose beads. All bound, radiolabeled products are detected by scintillation counter.
# Plates assayed are 96-well polypropylene (Greiner) and 96-well 1.2 μm hydrophilic PVDF filter plates (Millipore).
# IC50 determinations are calculated from 10 data points per compound utilizing data produced from a standard 96-well plate assay template. One control compound and seven unknown inhibitors were tested on each plate and each plate was run twice. […] The control compound was staurosporine. Background was counted in the absence of peptide substrate. Total activity was determined in the presence of peptide substrate. The following protocol was used to determine Btk inhibition.
# 1) Sample preparation: The test compounds were diluted at half-log increments in assay buffer (imidazole, glycerol-2-phosphate, EGTA, MnCl2, MgCl2, BSA).
# 2) Bead preparation • a.) rinse beads by centrifuging at 500 g • b.) reconstitute the beads with PBS and EDTA to produce a 20% bead slurry
# 3) Pre-incubate reaction mix without substrate (assay buffer, DTT, ATP, ^33P ATP) and mix with substrate (assay buffer, DTT, ATP, ^33P ATP, peptide substrate) 30° C. for 15 min.
# 4) To start assay, pre-incubate 10 μL Btk in enzyme buffer (imidazole, glycerol-2-phosphate, BSA) and 10 μL of test compounds for 10 min at RT.
# 5) Add 30 μL reaction mixture without or with substrate to Btk and compounds.
# 6) Incubate 50 μL total assay mix for 30 min at 30° C.
# 7) Transfer 40 μL of assay to 150 μL bead slurry in filter plate to stop reaction.
# 8) Wash filter plate after 30 min, with following steps • a. 3×250 μL NaCl • b. 3×250 μL NaCl containing 1% phosphoric acid • c. 1×250 μL H2O
# 9) Dry plate for 1 h at 65° C. or overnight at RT
# 10) Add 50 μL microscint-20 and count ^33P cpm on scintillation counter.
# Calculate percent activity from raw data in cpm percent activity=(sample−bkg)/(total activity−bkg)×100
# Calculate IC50 from percent activity, using one-site dose response sigmoidal model y=A+((B−A)/(1+((x/C)^D))))
# T1 sequence (Q06187 whole entry): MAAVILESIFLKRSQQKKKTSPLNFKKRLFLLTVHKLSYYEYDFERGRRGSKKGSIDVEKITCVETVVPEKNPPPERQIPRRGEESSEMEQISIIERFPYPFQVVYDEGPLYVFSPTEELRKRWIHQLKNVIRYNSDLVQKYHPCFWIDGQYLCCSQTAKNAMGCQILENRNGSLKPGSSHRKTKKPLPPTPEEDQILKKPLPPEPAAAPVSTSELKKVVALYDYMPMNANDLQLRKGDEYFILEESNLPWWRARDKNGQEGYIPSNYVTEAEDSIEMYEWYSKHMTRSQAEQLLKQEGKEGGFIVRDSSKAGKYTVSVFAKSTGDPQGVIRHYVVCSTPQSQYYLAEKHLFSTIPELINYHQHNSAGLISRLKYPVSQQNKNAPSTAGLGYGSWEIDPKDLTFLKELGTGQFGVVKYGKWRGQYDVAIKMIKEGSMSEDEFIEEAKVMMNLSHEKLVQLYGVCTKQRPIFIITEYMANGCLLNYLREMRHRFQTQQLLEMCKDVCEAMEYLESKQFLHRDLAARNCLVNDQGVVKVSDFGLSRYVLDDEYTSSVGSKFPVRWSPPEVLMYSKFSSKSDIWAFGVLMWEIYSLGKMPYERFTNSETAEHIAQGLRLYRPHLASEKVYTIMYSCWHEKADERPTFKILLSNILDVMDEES
Structure (SMILES),IC50 (Ramos cells),melting point,IC50 ([1]; Table I pyridazinones),IC50 ([1]; Table II pyridinones)
"Cc1c(NC(=O)c2ccc(C(C)(C)C)cc2)cccc1-c1cc(Nc2ccc(C(=O)N3CCOCC3)cn2)c(=O)n(C)c1 [II-2, 4-tert-Butyl-N-(2-methyl-3-{1-methyl-5-[5-(morpholine-4-carbonyl)-pyridin-2-ylamino]-6-oxo-1,6-dihydro-pyridin-3-yl}-phenyl)-benzamide]",67 nM,,,
COc1nccc(Nc2cc(-c3cccc(NC(=O)c4ccc(C(C)(C)C)cc4)c3C)nn(C)c2=O)n1 [Compound I-17],415 nM,262 to 264 °C,104 nM,
"CNC(=O)Nc1cc(-c2cccc(NC(=O)c3cc4c(s3)CCCC4)c2C)cn(C)c1=O [II-11, 4,5,6,7-Tetrahydro-benzo[b]thiophene-2-carboxylic acid{2-methyl-3-[1-methyl-5-(3-methyl-ureido)-6-oxo-1,6-dihydro-pyridin-3-yl]-phenyl}-amide]",,254 to 255 °C,,40 nM
"CCNC(=O)Nc1cc(-c2cccc(NC(=O)c3ccc(C(C)(C)C)cc3)c2CO)cn(C)c1=O [II-56, 4-tert-Butyl-N-{3-[5-(3-ethyl-ureido)-1-methyl-6-oxo-1,6-dihydro-pyridin-3-yl]-2-hydroxymethyl-phenyl}-benzamide]",4 nM,,,< 10 nM
Cc1c(NC(=O)c2ccc(C(C)(C)C)cc2)cccc1-c1cc(Nc2ccnc(N3CCN(C)CC3)n2)c(=O)n(C)n1 [Compound I-11],,220 to 222 °C,78 nM,
"CNC(=O)Nc1cc(-c2cccc(NC(=O)N3Cc4ccccc4C3)c2C)cn(C)c1=O [II-17, 1,3-Dihydro-isoindole-2-carboxylic acid{2-methyl-3-[1-methyl-5-(3-methyl-ureido)-6-oxo-1,6-dihydro-pyridin-3-yl]-phenyl}-amide]",,264 to 265 °C,,666 nM
CNC(=O)Nc1cc(-c2cccc(NC(=O)c3ccc(N(C)C)cc3)c2C)cn(C)c1=O [II-13],552 nM,291 to 292 °C,,96 nM
CNC(=O)Nc1cc(-c2cccc(NC(=O)N3Cc4ccc(F)cc4C3)c2C)cn(C)c1=O [II-14],,262 to 263 °C,,1950 nM
Cc1c(NC(=O)c2ccc(C(C)(C)C)cc2)cccc1-c1cc(Nc2ccnc(N3CCCC3)n2)c(=O)n(C)n1 [Compound I-21],,193 to 195 °C,354 nM,
Cc1c(NC(=O)c2ccc(C(C)(C)C)cc2)cccc1-c1cc(NC(=O)NCCCN(C)C)c(=O)n(C)c1 [II-22],,194 to 195 °C,,29 nM
Cc1c(NC(=O)c2ccc(C(C)(C)C)cc2)cccc1-c1cc(Nc2ccnc(N3CCOCC3)n2)c(=O)n(C)n1 [Compound I-14],,211 to 213 °C,249 nM,
Cc1c(NC(=O)c2ccc(C(C)(C)C)cc2)cccc1-c1cc(NC(=O)NCCO)c(=O)n(C)c1 [II-18],,220 to 221 °C,,38 nM
CNC(=O)Nc1cc(-c2cccc(CC(=O)N3Cc4ccccc4C3)c2)cn(C)c1=O [II-45],,251 to 252 °C,,1560 nM
Cn1nc(-c2cccc(CC(=O)N3CCCC3)c2)cc(Nc2ccc(C(=O)N3CCOCC3)cn2)c1=O [Compound I-33],,117 to 118 °C,16400 nM,
Cc1c(NC(=O)c2ccc(C(C)(C)C)cc2)cccc1-c1cc(NC(=O)NCC(F)(F)F)c(=O)n(C)c1 [II-7],,258 to 259 °C,,867 nM
Cc1c(NC(=O)c2ccc(C(C)(C)C)cc2)cccc1-c1cc(Nc2ccncn2)c(=O)n(C)n1 [Compound I-4],,249 to 250 °C,208 nM,
Cn1cc(-c2cccc(NC(=O)c3ccc(C(C)(C)C)cc3)c2CO)cc(Nc2ccc(C(=O)N3CCOCC3)cn2)c1=O [II-58],15 nM,,,
Cn1nc(-c2cccc(NC(=O)c3ccc(C(C)(C)O)cc3)c2)cc(Nc2ccc(C(=O)N3CCOCC3)cn2)c1=O [Compound I-16],,172 to 173 °C,120 nM,
"Cc1c(NC(=O)N2CC(OC(C)(C)C)C2)cccc1-c1cc(Nc2ccc(C(=O)N3CCOCC3)cn2)c(=O)n(C)n1 [Compound I-10, 3-tert-Butoxy-azetidine-1-carboxylic acid(2-methyl-3-{1-methyl-5-[5-(morpholine-4-carbonyl) -pyridin-2-ylamino]-6-oxo-1,6-dihydro-pyridazin-3-yl}-phenyl)-amide]",,171 to 172 °C,228 nM,
Cn1nc(-c2cccc(CC(=O)NCCOC(C)(C)C)c2)cc(Nc2ccc(C(=O)N3CCOCC3)cn2)c1=O [Compound I-32],32 nM,220 to 221 °C,820 nM,
Cn1nc(-c2cccc(NC(=O)c3ccc(C(C)(C)C)cc3)c2)cc(Nc2ccc(C(=O)N3CCOCC3)cn2)c1=O [Compound I-25],,229 to 230 °C,120 nM,
Cn1nc(-c2cccc(CC(=O)N3CCC(C(C)(C)C)CC3)c2)cc(Nc2ccc(C(=O)N3CCOCC3)cn2)c1=O [Compound I-42],,231 to 232 °C,2350 nM,
CCNC(=O)Nc1cc(-c2cccc(NC(=O)c3ccc(C(C)(C)C)cc3)c2C)nn(C)c1=O [Compound I-27],,278 to 279 °C,122 nM,
"Cc1c(-c2cc(Nc3ccc(C(=O)N4CCOCC4)cn3)c(=O)n(C)n2)cccc1-n1cnc2cc(C(C)(C)C)ccc2c1=O [Compound I-8, 7-tert-Butyl-3-(2-methyl-3-{1-methyl-5-[5-(morpholine-4-carbonyl)-pyridin-2-ylamino]-6-oxo-1,6-dihydro-pyridazin-3-yl}-phenyl)-3H-quinazolin-4-one]",205 nM,188.5 to 191 °C,116 nM,
"CCN(CC)Cc1ccc(Nc2cc(-c3cccc(NC(=O)c4ccc(C5(F)CC5)cc4)c3CO)cn(C)c2=O)nc1 [II-70, N-{3-[5-(5-Diethylaminomethyl-pyridin-2-ylamino)-1-methyl-6-oxo-1,6-dihydro-pyridin-3-yl]-2-hydroxymethyl-phenyl}-4-(1-fluoro-cyclopropyl)-benzamide]",,203 to 204 °C,,< 10 nM
Cc1c(NC(=O)c2ccc(C(C)(C)C)cc2)cccc1-c1cc(Nc2ccccn2)c(=O)n(C)n1 [Compound I-3],,248.5 to 249.3 °C,94 nM,
